Earlier results in patent US20070292421A1, “Method for treating preeclampsia” (priority 2005, published 2007).

What was measured:
[1] = tested on: 5-HT2C, 5-HT2B, 5-HT1D, alpha-adrenergic, and dopamine receptors; details: relative to 5-HT2A
[2] = molecular target: serotonin 5-HT2A receptor (Homo sapiens, UniProt P28223)
trophoblast apoptosis = details: in vitro
human C5a receptor = details: numerous models of human disease
[3] = tested on: antineutrophil cytoplasmic antibody (ANCA) positive patients
severe sepsis = details: OPTIMIST trial

Sequence of serotonin 5-HT2A receptor (P28223 whole entry): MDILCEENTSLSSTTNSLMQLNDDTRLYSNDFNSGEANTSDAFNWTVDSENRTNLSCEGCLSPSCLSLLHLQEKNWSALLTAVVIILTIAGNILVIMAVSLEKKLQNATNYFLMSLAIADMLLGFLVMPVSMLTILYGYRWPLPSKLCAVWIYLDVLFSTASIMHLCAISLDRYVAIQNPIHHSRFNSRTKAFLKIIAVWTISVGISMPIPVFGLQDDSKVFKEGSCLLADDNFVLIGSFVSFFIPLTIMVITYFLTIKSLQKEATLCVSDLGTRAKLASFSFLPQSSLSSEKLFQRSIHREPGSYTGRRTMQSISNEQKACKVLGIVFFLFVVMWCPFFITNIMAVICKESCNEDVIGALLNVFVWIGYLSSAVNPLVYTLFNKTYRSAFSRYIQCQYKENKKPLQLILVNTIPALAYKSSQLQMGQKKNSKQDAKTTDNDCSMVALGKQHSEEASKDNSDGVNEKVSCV

O=C(c1ccc(F)cc1)C1CCN(CCn2c(=O)[nH]c3ccccc3c2=O)CC1 [Ketanserin]
binding [1]: binds less potently
affinity [2]: high affinity

CC(=O)Oc1ccccc1C(=O)O [aspirin]
effect on trophoblast apoptosis (trophoblast apoptosis): regulate trophoblast apoptosis

Ac-Phe [3D53, Ac-Phe [Orn-Pro-D-Cha-Trp-Arg]]
anti-inflammatory activity (human C5a receptor): excellent anti-inflammatory activity

Rituximab: monoclonal antibody that binds the B cell surface protein CD20 (Roche Pharmaceuticals)
clinical improvement ([3]; n=11 patients combined, added to immunosuppressive drug regimen): clinical improvement in all eleven cases
cases with complete clinical improvement ([3]; of eleven cases): eight

heparin
effect on trophoblast apoptosis (trophoblast apoptosis): regulate trophoblast apoptosis

tifacogin: recombinant TFPI (Chiron Corp/Pharmacia Corp)
treatment of severe sepsis (severe sepsis): failure
